Measured values: patent US12358960B2, “Selective targeting of ubiquitin- and ubiquitin-like E1-activating enzymes by structurally-stabilized peptides” (Dana-Farber Cancer Institute, Inc., priority 2019, dated 2025)
Bridge positions count the residues as written; N and C are the ends. Square brackets hold non-standard residues; d marks the D form. Peptide text beside a SMILES is read from it. R8 = C=CCCCCCC[C@@](C)(N)C(=O)O; S5 = C=CCCC[C@](C)(N)C(=O)O; Nle = CCCC[C@H](N)C(=O)O

Columns and labels:
[1] = test system: ubiquitin cascade E1 (UBA1), E2 (UBE2A), E3 (HDM2), substrate p53; assay: In vitro ubiquitin pathway reconstitution assay (p53 ubiquitination); type: biochemical; details: peptide 30 μM; for ubiquitination of p53 with E2 pre-activated with Ub: pre-activated E2 instead of uncharged E2 and Ub; for ubiquitination of p53 with E1, E2, E3, Ub and ATP: unactivated E2
Experimental: In Vitro Ubiquitin Pathway Reconstitution Assay: Reactions containing recombinant His-p53 (0.1 μM), in the presence or absence of peptide (30 μM), UBA1 (0.1 μM), UBE2D (1 μM), HDM2 (1 μM), ubiquitin (1 μM) and ATP (10 mM) (all Boston Biochem K-200B), preactivated Ub-UBEA2 (3 μM) (Boston Biochem E2-802), and USP7 (1 μM) (BostonBiochem E-519), as indicated, were mixed and incubated for 2 h at 37° C. in a final volume of […] followed by denaturation by boiling in SDS-containing loading dye for 10 min at 90° C. Samples were resolved by […] gel electrophoresis and transferred to nitrocellulose membrane. Membranes were blocked with 3% milk for 1 h, incubated overnight in PBS containing 3% BSA and mouse p53 antibody (Boston Biochem K-200B) at a 1:1000 dilution, washed in PBS containing 0.1% Tween-20, and then incubated in PBS containing 3% BSA and anti-mouse secondary antibody (BioRad AAC10P) at a 1:5000 dilution for 1 hour at room temperature. Membranes were again washed in PBS containing 0.1% Tween-20 and imaged using Amersham ECL Prime (GE Life Sciences) on an Amersham Imager 680 (GE Life Sciences).

[2] = target: T1, UBA1 (Homo sapiens, UniProt P22314); assay: Streptavidin-biotin pull-down with recombinant protein; type: binding; details: biotinylated peptide, silver stain
T1 sequence (P22314 1-1058): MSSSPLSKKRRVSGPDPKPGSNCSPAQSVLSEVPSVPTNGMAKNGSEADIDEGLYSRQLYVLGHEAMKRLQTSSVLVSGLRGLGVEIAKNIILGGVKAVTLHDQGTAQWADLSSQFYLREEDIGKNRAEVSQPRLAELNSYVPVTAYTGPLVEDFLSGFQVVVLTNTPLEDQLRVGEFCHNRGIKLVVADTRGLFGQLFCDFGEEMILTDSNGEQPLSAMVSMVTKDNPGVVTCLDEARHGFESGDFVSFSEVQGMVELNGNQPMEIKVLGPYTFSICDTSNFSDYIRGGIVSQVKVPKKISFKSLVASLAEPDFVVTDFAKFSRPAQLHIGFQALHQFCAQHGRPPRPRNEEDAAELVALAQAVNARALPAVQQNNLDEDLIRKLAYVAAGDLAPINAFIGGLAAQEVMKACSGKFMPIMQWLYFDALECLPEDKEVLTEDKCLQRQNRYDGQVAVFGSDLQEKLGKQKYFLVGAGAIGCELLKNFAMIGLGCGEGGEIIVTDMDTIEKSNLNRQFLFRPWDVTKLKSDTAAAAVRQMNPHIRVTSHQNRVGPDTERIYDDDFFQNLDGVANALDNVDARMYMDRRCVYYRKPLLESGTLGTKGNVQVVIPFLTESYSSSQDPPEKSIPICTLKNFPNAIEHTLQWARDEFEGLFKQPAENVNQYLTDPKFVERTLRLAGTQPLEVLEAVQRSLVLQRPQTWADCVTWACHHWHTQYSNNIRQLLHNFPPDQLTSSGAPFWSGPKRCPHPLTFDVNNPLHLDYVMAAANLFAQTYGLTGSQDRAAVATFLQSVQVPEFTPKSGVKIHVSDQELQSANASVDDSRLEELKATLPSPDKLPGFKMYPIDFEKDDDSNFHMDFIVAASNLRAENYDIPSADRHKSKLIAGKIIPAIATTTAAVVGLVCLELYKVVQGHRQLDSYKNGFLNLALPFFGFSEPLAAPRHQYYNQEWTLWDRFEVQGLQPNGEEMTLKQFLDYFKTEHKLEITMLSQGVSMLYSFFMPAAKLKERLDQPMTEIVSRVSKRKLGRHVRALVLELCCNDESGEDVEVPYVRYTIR
Experimental: Streptavidin-biotin pull-down assays: For recombinant protein pull-downs, 10 pmol recombinant human UBA1 was incubated with 5 nmol C-terminally biotinylated SAH-UBE2A or DMSO vehicle control in a total volume of 1 mL binding buffer (50 mM NaCl, 20 mM HEPES, pH 7.4, 5 mM DTT) for 1.5 hours at 4° C. 30 μL of pre-equilibrated streptavidin agarose beads were then added and incubated for an additional 1.5 hours at 4° C. The beads were pelleted by centrifugation and washed three times with NP-40 buffer (20 mM HEPES, pH 7.4, 50 mM NaCl, 5 mM DTT, 0.5% [v/v] NP-40) before eluting the protein sample from the beads by heating at 70° C. for 10 min in 3×SDS loading buffer. Samples were subjected to electrophoresis and silver staining (Pierce 24612). […] Proteins were separated by SDS-PAGE gel electrophoresis and detected by western blot against UBE1 (Abcam ab34711). […] Conjugation of ubiquitin to E2 by E1 is monitored by conversion of free E2 (17 kDa) to E2˜ubiquitin conjugate (26 kDa). Quantitation of percent inhibition was calculated from densitometry of silver stain images. Error bars represent ±1 SEM calculated from three independent experiments.

[3] = target: T1, UBA1; assay: UBA1~Ub thioester adduct formation (thioester transfer assay gel resolving UBA1 from UBA1~Ub); type: biochemical; details: all concentrations of peptide

Structure (SMILES): CCCC[C@H](NC(C)=O)C(=O)N[C@@H](CO)C(=O)N[C@H](C(=O)N1CCC[C@H]1C(=O)N[C@]1(C)CCCCCCC=CCCC[C@@](C)(C(=O)N[C@@H](Cc2ccccc2)C(=O)N[C@@H](CCCCN)C(=O)N[C@@H](CCCNC(=N)N)C(=O)N[C@@H](CC(C)C)C(=O)N[C@@H](CCC(N)=O)C(N)=O)NC(=O)[C@H](CCCNC(=N)N)NC(=O)[C@H](CCCC)NC(=O)[C@H](CC(C)C)NC(=O)[C@H](CCCNC(=N)N)NC(=O)[C@H](CCCNC(=N)N)NC(=O)[C@H](CCCNC(=N)N)NC1=O)[C@@H](C)O [SAH-UBE2A-11, BSTPX1RRRLBRX2FKRLQ] (Ac-[Nle]STP[R8]RRRL[Nle]R[S5]FKRLQ-NH2; staple 5-12)
- ubiquitination of p53 with E2 pre-activated with Ub [1]: no effect on the ubiquitination of p53
- ubiquitination of p53 with E2 pre-activated with Ub ([1]; listed as SAH-UBE2A): circumvents the inhibitory activity of SAH-UBE2A
- ubiquitination of p53 with E1, E2, E3, Ub and ATP [1]: inhibited the ubiquitination of p53 protein
- ubiquitination of p53 with E1, E2, E3, Ub and ATP ([1]; listed as SAH-UBE2A): inhibits the ubiquitination of p53
- direct binding to recombinant UBA1, streptavidin capture [2]: direct binding of SAH-UBE2A to UBA1
- ability of UBA1 to form covalent UBA1~Ub thioester adduct [3]: no effect on the ability of UBA1 to covalently charge itself with ubiquitin
- ability of UBA1 to form covalent UBA1~Ub thioester adduct ([3]; listed as SAH-UBE2A): no effect on the ability of UBA1 to form a covalent UBA1˜Ub thioester adduct
